{"source": "patent US8470970B2", "about": "“Mammalian sweet and amino acid heterodimeric taste receptors comprising T1R3 and T1R1” (The Regents of the University of California, priority 2001, dated 2013)", "key": {"mouse T1R1+3": {"target": "T1, mouse T1R1+3 (Mus musculus, UniProt Q925D8+Q99PG6)", "T1 construct": "expressed in transfected cells; host or cells: HEK-293 (PEAKrapid) cells co-expressing promiscuous G proteins", "T1 sequence (Q99PG6 20-842 L120P/N244D/D281A/N309Y/P311T/S314P/H418Y)": "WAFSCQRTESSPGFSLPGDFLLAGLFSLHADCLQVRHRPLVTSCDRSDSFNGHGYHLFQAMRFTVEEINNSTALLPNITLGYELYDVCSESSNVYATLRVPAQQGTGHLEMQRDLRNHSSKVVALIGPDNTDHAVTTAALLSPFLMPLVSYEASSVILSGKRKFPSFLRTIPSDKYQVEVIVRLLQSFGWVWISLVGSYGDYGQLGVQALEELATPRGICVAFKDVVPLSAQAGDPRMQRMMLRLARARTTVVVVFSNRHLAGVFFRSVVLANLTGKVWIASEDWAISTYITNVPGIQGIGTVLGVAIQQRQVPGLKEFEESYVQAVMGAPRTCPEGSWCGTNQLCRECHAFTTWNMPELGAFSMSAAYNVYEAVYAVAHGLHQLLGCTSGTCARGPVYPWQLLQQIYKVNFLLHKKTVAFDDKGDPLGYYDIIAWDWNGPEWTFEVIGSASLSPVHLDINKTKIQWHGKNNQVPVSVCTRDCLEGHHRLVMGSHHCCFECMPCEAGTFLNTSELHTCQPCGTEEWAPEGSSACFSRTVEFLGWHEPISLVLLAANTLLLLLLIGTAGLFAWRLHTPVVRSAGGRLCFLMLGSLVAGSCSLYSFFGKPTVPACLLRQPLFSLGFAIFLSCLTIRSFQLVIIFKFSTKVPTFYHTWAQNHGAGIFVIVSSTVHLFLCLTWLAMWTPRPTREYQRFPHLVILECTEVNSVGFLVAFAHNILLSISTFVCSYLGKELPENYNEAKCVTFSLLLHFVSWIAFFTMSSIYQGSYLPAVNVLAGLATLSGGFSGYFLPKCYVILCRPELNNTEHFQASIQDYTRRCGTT", "T1 sequence (Q925D8 21-858)": "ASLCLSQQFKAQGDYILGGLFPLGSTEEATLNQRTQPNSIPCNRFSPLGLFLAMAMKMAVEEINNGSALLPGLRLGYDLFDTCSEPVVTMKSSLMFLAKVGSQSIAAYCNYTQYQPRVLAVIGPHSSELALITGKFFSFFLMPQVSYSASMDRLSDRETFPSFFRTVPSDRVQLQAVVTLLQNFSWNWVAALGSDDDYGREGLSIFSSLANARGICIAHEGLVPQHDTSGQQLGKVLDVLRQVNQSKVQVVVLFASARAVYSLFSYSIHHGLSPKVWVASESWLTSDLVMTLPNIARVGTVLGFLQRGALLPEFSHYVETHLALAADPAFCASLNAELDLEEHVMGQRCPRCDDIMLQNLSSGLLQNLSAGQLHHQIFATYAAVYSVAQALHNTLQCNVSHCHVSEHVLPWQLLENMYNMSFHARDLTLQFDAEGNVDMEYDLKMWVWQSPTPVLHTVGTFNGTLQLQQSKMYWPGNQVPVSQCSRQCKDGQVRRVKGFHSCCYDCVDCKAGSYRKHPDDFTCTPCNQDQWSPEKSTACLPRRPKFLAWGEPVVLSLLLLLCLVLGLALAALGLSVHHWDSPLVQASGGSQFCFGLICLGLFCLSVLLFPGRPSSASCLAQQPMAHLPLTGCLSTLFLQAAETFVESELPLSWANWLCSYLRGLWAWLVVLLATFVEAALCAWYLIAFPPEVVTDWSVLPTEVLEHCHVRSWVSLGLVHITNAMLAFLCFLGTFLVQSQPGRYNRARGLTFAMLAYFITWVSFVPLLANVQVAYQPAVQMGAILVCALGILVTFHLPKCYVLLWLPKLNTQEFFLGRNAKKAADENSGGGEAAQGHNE", "assay": "Calcium imaging of HEK-293 cells co-expressing promiscuous G proteins and mouse T1R1+3", "format": "cell-based", "conditions": "for shift of T1R1+3 dose response in the presence of IMP: 2.5 mM IMP; for activation of T1R1+3: amino acids 50 mM", "description": "(a): HEK-293 cells co-expressing promiscuous G proteins and heteromeric mouse T1R2+3 or T1R1+3 receptors were stimulated with L- and D-amino acids. […] (b)(c): Quantification of amino-acid responses for T1R2+3(b) and T1R1+3(c). […] Each column represents the mean±s.e.m. of at least ten independent determinations. […] All calcium measurements and quantifications were performed as described in the Methods and Nelson et al., Cell 106:381-390 (2001).\nMouse T1R1 and T1R3 were transfected alone or in combination and tested for stimulation by L-amino acids.\n(§1) Cells were grown, maintained and transfected exactly as described earlier (Nelson et al., Cell, 106:381-390 (2001)). […] FURA-2 acetomethyl ester was used to measure intracellular calcium concentration ([Ca^2+]i), and assay conditions were identical to those previously described (Nelson et al., Cell, 106:381-390 (2001)). Responses were measured for 60 s and the fluorescence ratio at wavelengths of 340 and 380 nm (F340/F380) was used to measure [Ca^2+]i. For data analysis, response refers to the number of cells responding in a field of about 300 transfected cells. Cells were counted as responders if F340/F380 increased above 0.27 after addition of tastant. […] Dose-response functions were fitted using the logistical equation. Studies involving taster and non-taster alleles of T1R3 used constructs of complementary DNA coding for T1R3 from C57BL/6 and 129/Sv mice, respectively (Nelson et al., Cell, 106:381-390 (2001); Kitagawa et al., Biochem. Biophys. Res. Cummun., 283:236-242 (2001); Montmayeur et al., Nature Neurosci., 4:492-498 (2001); Max et al., Nature Genet., 28:58-63 (2001); Sainz et al., J. Neurochem., 77:896-903 (2001); Bachmanov et al., Chem. Senses, 26:925-933 (2001))."}, "[1]": {"target": "T2, receptors containing human T1R1 (UniProt Q7RTX1+Q925D8)", "T2 sequence (Q7RTX1 21-841)": "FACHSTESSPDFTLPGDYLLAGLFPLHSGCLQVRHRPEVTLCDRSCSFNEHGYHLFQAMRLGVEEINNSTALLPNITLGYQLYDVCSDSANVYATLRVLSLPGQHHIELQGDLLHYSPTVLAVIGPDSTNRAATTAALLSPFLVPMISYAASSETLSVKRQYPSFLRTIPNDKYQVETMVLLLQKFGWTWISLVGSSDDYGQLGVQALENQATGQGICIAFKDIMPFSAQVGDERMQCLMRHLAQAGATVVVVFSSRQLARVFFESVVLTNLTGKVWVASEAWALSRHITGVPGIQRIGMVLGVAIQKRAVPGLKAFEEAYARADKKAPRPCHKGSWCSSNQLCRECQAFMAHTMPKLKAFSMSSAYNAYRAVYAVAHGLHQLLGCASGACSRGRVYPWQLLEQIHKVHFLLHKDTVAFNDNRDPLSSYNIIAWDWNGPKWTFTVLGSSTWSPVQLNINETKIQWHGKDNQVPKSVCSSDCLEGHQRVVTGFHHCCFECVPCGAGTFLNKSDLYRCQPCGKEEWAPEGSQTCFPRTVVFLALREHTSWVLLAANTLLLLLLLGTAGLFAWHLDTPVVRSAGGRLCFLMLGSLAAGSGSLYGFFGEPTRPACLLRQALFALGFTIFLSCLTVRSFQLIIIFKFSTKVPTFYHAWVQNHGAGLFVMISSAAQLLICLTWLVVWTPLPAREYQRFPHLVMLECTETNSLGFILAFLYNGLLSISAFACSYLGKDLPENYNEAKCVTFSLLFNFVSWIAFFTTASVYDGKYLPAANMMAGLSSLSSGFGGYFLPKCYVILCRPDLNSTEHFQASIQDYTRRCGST", "T2 sequence (Q925D8 21-858)": "T1 sequence (Q925D8 21-858)", "description": "as §1"}, "[2]": {"assay": "Behavioral thresholds for detection of sweet tastants in vivo"}}, "data": [{"smiles": "C[C@@H](N)C(=O)O", "note": "[D-Ala]", "values": [{"measurement": "activation of T1R1+3 by D-amino acid in the presence of IMP", "setting": "mouse T1R1+3; amino acid 50 mM, IMP 2.5 mM", "result": "exception"}]}, {"smiles": "C[C@H](N)C(=O)O", "note": "[Ala, alanine]", "values": [{"measurement": "shift of T1R1+3 dose response in the presence of IMP", "setting": "mouse T1R1+3", "result": "at least one order of magnitude to the left"}, {"measurement": "activation of T1R1+3", "setting": "mouse T1R1+3", "result": "activating"}]}, {"smiles": "NC(=O)CC[C@H](N)C(=O)O", "note": "[glutamine]", "values": [{"measurement": "activation of T1R1+3", "setting": "mouse T1R1+3", "result": "activating"}]}, {"smiles": "N[C@@H](CCC(=O)O)C(=O)O", "note": "[Glu, glutamate]", "values": [{"measurement": "shift of T1R1+3 dose response in the presence of IMP", "setting": "mouse T1R1+3", "result": "at least one order of magnitude to the left"}, {"measurement": "sensitivity of cells expressing human T1R1 relative to other amino acids", "setting": "[1]", "result": "more than an order of magnitude more sensitive"}]}, {"smiles": "C[C@@H](O)[C@H](N)C(=O)O", "note": "[threonine]", "values": [{"measurement": "activation of T1R1+3", "setting": "mouse T1R1+3", "result": "activating"}]}, {"smiles": "N[C@@H](CCC(=O)O)C(=O)[O-].[Na+]", "note": "[MSG, monosodium L-glutamate]", "values": [{"measurement": "potentiation of T1R1+3 response to the tastant by purine nucleotides", "setting": "mouse T1R1+3", "result": "greatly potentiated"}, {"measurement": "activation of receptors containing human T1R1", "setting": "[1]; low concentration, FIG. 11c", "result": "robustly activates"}]}, {"smiles": "CC1=CC(=O)[N-]S(=O)(=O)O1.[K+]", "note": "[acesulfame-K]", "values": [{"measurement": "in vivo threshold", "setting": "[2]", "result": "~0.5", "unit": "mM"}]}, {"smiles": "N[C@@H](CO)C(=O)O", "note": "[Ser, serine]", "values": [{"measurement": "shift of T1R1+3 dose response in the presence of IMP", "setting": "mouse T1R1+3", "result": "at least one order of magnitude to the left"}, {"measurement": "activation of T1R1+3", "setting": "mouse T1R1+3", "result": "activating"}]}, {"smiles": "OC[C@H]1O[C@@](CO)(O[C@H]2O[C@H](CO)[C@@H](O)[C@H](O)[C@H]2O)[C@@H](O)[C@@H]1O", "note": "[sucrose]", "values": [{"measurement": "in vivo threshold", "setting": "[2]", "result": "~20", "unit": "mM"}]}, {"smiles": "NC(CCP(=O)(O)O)C(=O)O", "note": "[L-AP4]", "values": [{"measurement": "potentiation of T1R1+3 response to the tastant by purine nucleotides", "setting": "mouse T1R1+3", "result": "greatly potentiated"}]}, {"smiles": "NCC(=O)O", "note": "[Gly, glycine]", "values": [{"measurement": "activation of T1R1+3", "setting": "mouse T1R1+3", "result": "activates"}, {"measurement": "activation of T1R1+3", "setting": "mouse T1R1+3; listed as glycine", "result": "activating"}]}, {"smiles": "N[C@@H](Cc1c[nH]c2ccccc12)C(=O)O", "note": "[Trp]", "values": [{"measurement": "activation of T1R1+3", "setting": "mouse T1R1+3", "result": "no responses"}]}, {"smiles": "O=C1NS(=O)(=O)c2ccccc21", "note": "[saccharin]", "values": [{"measurement": "in vivo threshold", "setting": "[2]", "result": "~0.5", "unit": "mM"}]}]}
